What all share (assay): inhibition of tumour cell growth, NCI panel, 48 h
Test [1] deals with 786-0 renal.
Test [2] relates to BT-549 breast.
Test [3] deals with CCRF-CEM leukemia.
Test [4] has as its system HCC-2998 colon.
Test [5] deals with HCT-116 colon.
Test [6] relates to NCI-H460 lung.
The test system of test [7] is OVCAR-3 ovarian.
Test [8] relates to SF-295 CNS.
In test [9] the test system is TK-10 renal.
For test [10], the system named is A498 renal.

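Values below derive from 48-hour exposures of cells grown in 96-well plates, with endpoints linearly interpolated between the two concentrations bracketing the appropriate inhibition level. Abbreviation: GI50, concentration required for 50% inhibition of growth. TGI: total growth inhibition.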

For the compound `CO[C@H]1SC[C@H](OC(C)=O)[C@H](OC(C)=O)[C@H]1OC(C)=O`, the TGI in test [1], in [2], in test [3], in test [4], in test [5] and in [6] was over 100 µM in each case. The TGI in [7], in test [8] and in test [9] was over 100 µM in each case.

As to `O=P(O)(O)c1ccccc1Oc1ccccc1`, the TGI in test [1], in [10], in [2], in test [3], in test [4] and in [5] was over 100 µM each time. Further, the TGI in [6], in test [7], in test [8] and in test [9] was over 100 µM in each case.

In the case of `O=C(O)c1cccc2cccc(-c3cccc4cccc(C(=O)O)c34)c12`, the TGI in test [1], in [10], in test [2], in [3], in test [4] and in test [5] was over 100 µM throughout. In addition, the TGI in test [6], in test [7], in [8] and in [9] was over 100 µM throughout.

On to `C=C(C)OCOCCOC`, for which the TGI in test [1], in test [10], in [2], in test [3], in test [4] and in [5] was over 100 µM throughout. The TGI in test [6], in test [7], in test [8] and in test [9] was over 100 µM in each case.

In the case of `Cc1cc(C)c2c(=O)cc(-c3cccc(F)c3)[nH]c2n1`, the TGI in [1] was over 64.2 µM; in test [10], over 26.9 µM; in test [2], over 22 µM; in test [4], 3.94 µM; in [5], 0.433 µM; in test [6], 2.45 µM. Moreover, the TGI in test [7] is 0.318 µM; in test [8] it was 0.199 µM; in test [9], over 100 µM.

For the compound `Cc1ccc(C(=O)N/N=C(\N=Nc2ccccc2)c2ccc(N(C)C)cc2)cc1`, the TGI in [1], in [2], in test [3], in [4], in test [5] and in test [6] was over 100 µM each time. Further, the TGI in test [7], in test [8] and in [9] was over 100 µM throughout.

As to `COC(=O)C1CCc2sc3ncnc(Nc4cn[nH]c4C(=O)Nc4ccc(CN5CCN(C)CC5)cc4)c3c21` (stereo not drawn), the GI50 in test [10] was 0.218 µM; in [2], 0.899 µM; in test [3], 0.29 µM; in [4], 1.82 µM; in test [6], 0.331 µM; in test [7], 0.334 µM. Further, the GI50 is 0.659 µM in test [8] and 2.31 µM in [9]. Besides, the TGI in test [10] was determined as 1.8 µM; in [2] it was 6.02 µM; in [3], 2.98 µM; in test [4], 31.5 µM; in test [6], 1.49 µM; in [7], 2.04 µM. Moreover, the TGI in test [8] was found to be 17.1 µM; in [9], 17.8 µM.

As to `CC1(C)OCC2OC3([C@@H]4OC(C)(C)O[C@H]4CO)OC(C)(C)OC3C2O1` (stereo partly drawn), the TGI in test [1], in [10], in test [2], in [3], in test [4] and in [5] was over 100 µM each time. Besides, the TGI in [6], in [7] and in test [8] was over 100 µM in each case.

With `CCCCC1=C(C(=O)N2CCOCC2)C2(OCCO2)C1=O`, the TGI in [1] was 40.6 µM; in test [10] it was 62.1 µM; in test [2] it was 78.8 µM; in [3] it was over 100 µM; in [5], 48.6 µM; in test [6], over 100 µM. Besides, the TGI in test [7] is 39.7 µM; in test [8], over 100 µM; in test [9] it was over 100 µM.

With `COc1ccccc1C1Nn2c(nc3ccccc3c2=O)N1c1ccc(C)cc1` (stereo not drawn), the TGI was determined as 8.37 µM in test [1]; 68.6 µM in test [2]; 24.7 µM in test [3]; 17.5 µM in test [4]; 16 µM in test [5]; 16.3 µM in [6]. For the same compound, the figures for the TGI in test [7], in test [8] and in test [9] were 18.6 µM, 17.8 µM and 22.7 µM, respectively.

As for `COc1cc(-c2n/c(=C\c3c(O)[nH]c4ccc(Cl)cc34)cc3c2=Nc2ccccc2-3)ccc1F`, the GI50 in [10] is 3.16 µM; in test [2], 2.06 µM; in test [3], 2.39 µM; in test [4], 2.94 µM; in [5], 1.75 µM; in test [7], 1.98 µM. Moreover, the GI50 was 2.34 µM in test [8] and 2.51 µM in [9]. The TGI is 15.2 µM in [10]; 3.84 µM in [2]; over 100 µM in [3]; 8.81 µM in test [4]; 3.34 µM in test [5]; 4.06 µM in test [7]. Besides, the TGI in [8] turned out to be 5.55 µM; in test [9] it was 4.43 µM.

As for `Cc1cc(S(=O)(=O)Nc2n[nH]c(-c3ccccn3)n2)c(S)cc1Cl`, the TGI in test [1] amounted to 72.7 µM; in test [10], 30.5 µM; in test [2], 79.6 µM; in test [4], 30.2 µM; in [5] it was 55.1 µM; in test [6] it was 27.7 µM. The TGI in [7] is 64.3 µM; in [9] it was 23.9 µM.

As for `O=C(CCc1cc(O)cc(O)c1)NCCCNC(=O)CCc1cc(O)cc(O)c1`, the TGI in [1], in test [10], in test [2], in test [3], in test [4] and in [5] was over 100 µM throughout. Moreover, the TGI in test [7], in [8] and in [9] was over 100 µM in each case.

With `CC(C)(C)OC(=O)NC(Cc1ccccc1)NC(=O)NC(=O)OCc1ccccc1` (stereo not drawn), the TGI in test [1], in [2], in test [4], in test [5], in test [6] and in test [7] was over 100 µM in each case. For the same compound, the TGI in test [8] and in test [9] was over 100 µM throughout.

Take `COc1cc(C(=O)Oc2ccc3c(c2)OCO3)cc(OC)c1OC`: the TGI in test [1], in test [10], in test [2], in test [4], in test [6] and in test [7] was over 100 µM in each case. Further, the TGI in test [8] and in test [9] was over 100 µM in each case.

For `CN(C)CC1CCC/C(=C\c2ccc(OC(=O)c3ccc(Cl)cc3)cc2)C1=O` (stereo not drawn), the TGI in test [1] is 2.3 µM; in test [10] it was 22.6 µM; in test [2], 7.55 µM; in test [4], over 29 µM; in test [5], 2.23 µM; in test [6], 17.5 µM. The TGI in test [7] amounted to 3.36 µM; in test [8], 9.84 µM; in test [9], 5.19 µM.

With `O=c1c(Cc2ccc(Cl)cc2)nnc2sc(-c3ccc(-c4ccc(F)c(Cl)c4)o3)nn12`, the TGI in test [1], in test [10], in test [2], in [3], in test [4] and in [5] was over 100 µM in each case. Also, the TGI in test [6], in [8] and in test [9] was over 100 µM in each case.

Take `S=C(N/N=C\C(=N/NC(=S)N1CCCCC1)c1ccccc1)N1CCCCC1`: the TGI in test [1] was determined as 3.74 µM; in [10] it was 3.18 µM; in test [2], 3.57 µM; in [4] it was 3.9 µM; in test [5] it was 6.53 µM; in [6], 4.86 µM. The results for the TGI in test [7], in test [8] and in test [9] were 3.68 µM, 3.91 µM and 3.25 µM, respectively.

Take `CC(=O)OCC1OC(n2c(-c3ccccc3)c(N=Nc3ccccc3)c(C)c(C#N)c2=S)C(OC(C)=O)C(OC(C)=O)C1OC(C)=O` (stereo not drawn): the TGI in test [1], in [2], in [3], in [4], in [5] and in test [6] was over 100 µM throughout. Also, the TGI in test [7], in test [8] and in [9] was over 100 µM throughout.

Regarding `N#C/C(C(=O)Nc1ccc(Cl)cc1)=C(/N)N1CCCC1`, the TGI in test [1], in test [10], in test [2], in test [3], in test [4] and in [5] was over 100 µM each time. Besides, the TGI in [6], in test [7] and in test [8] was over 100 µM in each case.

Regarding `OCCOCn1nncc1Cn1ncc2c(SCc3ccccc3)ncnc21`, the TGI in [1], in [10], in [2], in [4], in [5] and in test [6] was over 100 µM in each case. The TGI in test [7], in [8] and in test [9] was over 100 µM in each case.

As to `O=C1N=C2SC(=S)NC(=S)N2NC12c1ccccc1-c1ccccc12`, the TGI in [1] is over 10 µM; in test [10], 6.58 µM; in test [2] it was over 10 µM; in test [3] it was over 10 µM; in test [4], over 10 µM; in test [6], over 10 µM. This compound also had a TGI in [9] of over 10 µM.

Regarding `CC[C@H](Nc1nc(C)nc(N)c1C#N)c1nc2cccc(NCc3ccc(C(=O)NO)cc3)c2c(=O)n1-c1ccccc1`, the GI50 in [10] is 1.44 µM; in test [2] it was 1.93 µM; in [3] it was 0.551 µM; in [4] it was 1.67 µM; in [5] it was 1.01 µM; in test [6], 1.79 µM. Moreover, the GI50 in [7] was 1.48 µM; in test [8] it was 1.66 µM; in test [9] it was 2.43 µM. Also, the TGI is 2.93 µM in test [10]; 4.56 µM in test [2]; 9.21 µM in [3]; 3.28 µM in test [4]; 2.5 µM in [5]; 3.78 µM in test [6]. Moreover, the TGI was 2.96 µM in test [7], 3.14 µM in test [8] and 7.86 µM in test [9].

Regarding `C1=C2C3=[N+](CCCCC3)CC2Cc2ccsc21` (stereo not drawn), the TGI in [1], in test [10], in [2], in [3], in test [5] and in test [6] was over 100 µM in each case. Further, the TGI in [7], in test [8] and in test [9] was over 100 µM each time.

For the compound `Cc1cc2ncn(C3CCCCO3)c2cc1C` (stereo not drawn), the TGI in test [1], in test [2], in test [3], in test [4], in [5] and in test [7] was over 100 µM throughout. Also, the TGI in test [8] and in [9] was over 100 µM throughout.

For the compound `c1cncc(CC2(c3cc4ccccc4[nH]3)OCCO2)c1`, the TGI in test [1], in test [10], in [2], in test [3], in test [4] and in [5] was over 100 µM each time. For the same compound, the TGI in test [6], in [8] and in test [9] was over 100 µM each time.

Regarding `O=C(OCCN=c1c2ccccc2ccc2ccccc12)c1ccccc1`, the TGI in test [1], in test [2], in test [3], in test [4], in test [5] and in test [6] was over 100 µM each time. The TGI in [7], in [8] and in test [9] was over 100 µM throughout.
